Data published in patent publication US10376557B2, “Peptide fragments for inducing synthesis of extracellular matrix proteins” (HELIX BIOMEDIX, INC., priority 2006, dated 2019).
Ends that are not written are not given here.

Tested on: Human dermal fibroblasts
Test: SIRCOL collagen assay: soluble collagen released by dermal fibroblasts incubated with peptides
Type: cell-based
Details: for Collagen (μg) / Collagen: * = may not be significant, detection limit 2.5 μg; for Increase in collagen release at 48 h v. 24 h / Significant release of collagen at 24 h and 48 h / Decrease in collagen release at 48 h v. 24 h: check mark = yes; for Significant release of collagen at 24 h and 48 h: 25 μg/mL considered significant
Protocol: Several sequences identified in Examples 1 and 2 were synthesized using standard peptide chemistry and assayed for the stimulation of collagen from dermal fibroblasts. The synthesized peptides were amidated at the C-terminus, which rendered the tetrapeptides less susceptible to protease degradation and increased their solubility compared to the free acid forms. Human dermal fibroblasts were incubated in 96-well plates at 37° C. and 5% CO2 for 24 and 48 hours in 150 μL complete cell culture media (Cascade Biologics, Portland, Oreg.; Cat. No. M-106-500), supplemented with Low Serum Growth Supplement (Cascade Biologics, Portland, Oreg.; Cat. No. […] Each well was seeded with 10,000 cells. Following the incubation, 100-μL medium samples were recovered from each well and assayed for collagen production
The assays were performed by Tebu-bio Laboratories (France) using the SIRCOL™ Collagen Assay Kit (Biocolor Assays, UK) following the manufacturer's protocol. The SIRCOL™ Collagen Assay is a quantitative dye-binding method designed for the analysis of soluble collagens released into culture medium by mammalian cells during in vitro culture. The collagen of the tested samples binds to the anionic SIRCOL™ dye. The collagen-dye complexes precipitate out of solution and are pelleted by centrifugation. The recovered collagen-dye pellet was dissolved in an alkaline solution prior to absorbance measurements. Duplicate measurements were taken at the 24 and 48 hour times from two separate samples. The four measurements for each sample were averaged. The absorbance of reagent blanks, collagen standards, and samples were measured at 560 nm. The reagent blank absorbance was subtracted from the absorbance from each sample at 24 and 48 hours.
Two separate data sets were used to generate two collagen standard calibration curves. The first calibration curve was generated for purposes of calculating the quantity of collagen in samples H6 (combination of SEQ ID NOs:1-4), […] (SEQ ID NOs:1-8, respectively) and H15 (combination of SEQ ID NOs:5-8). The second calibration curve was generated for calculating the quantity of collagen in samples H16 (SEQ ID NO:9), H21-23 (SEQ ID NOs:10-12, respectively), H25-26 (SEQ ID NOs:13-14, respectively), or H29-30 (SEQ ID NOs:15-16, respectively), H32 (SEQ ID NO:17), H33 (combination of SEQ ID NOs:9-12), H34 (combination of SEQ ID NOs:11-14), H35 (combination of SEQ ID NOs:13-16), H36 (combination of SEQ ID NOs:1, 6, 5, 8), H37 (SEQ ID NO: 17) and H38 (SEQ ID NO:8) from the absorbance measurements was created by plotting the Abs560nm of the known collagen standards versus the respective concentrations of the collagen standards (in micrograms) each time a series of assays were performed. With respect to each data set, the same calibration curve was used for samples taken at the 24 and 48 hour times (Tables 2A and 2B). Accordingly, different standard curves were prepared immediately prior to performing each series of assays.
A linear regression was performed from plotting the Abs560nm values versus concentrations of the respective collagen standards using MICROSOFT EXCEL™. […] As the results were identical, only the 24-hour time period was used for the second series calibration curves. The formula of the line obtained on assay date 1 and assay date 2 of the second series of samples was y=0.0178x and y=0.0162x, respectively. The peptide LL-37 (SEQ ID NO:18) was used as a positive control as it has been widely reported to have an impact upon wound healing in man (Heilborn et al., The Cathelicidin Anti-Microbial Peptide LL-37 Is Involved In The Re-Epithelialization Of Human Skin Wounds And Is Lacking In Chronic Ulcer Epithelium, J. Invest. Dermato. 120:379-89 (2003). The assay detection limit defined by the manufacturer is 2.5 μg. […]

[1] = 24 hours, peptide 50 μg/mL, 100 μL medium sample
[2] = 48 hours, peptide 50 μg/mL, 100 μL medium sample
[3] = peptide 0.3 μg/mL (per Table 5)
[4] = 24 hours, peptide 0.3 μg/mL, second series
[5] = 48 hours, peptide 0.3 μg/mL, second series
[6] = 24 hours, peptide 50 μg/mL, second series
[7] = 48 hours, peptide 50 μg/mL, second series

Substance | Released collagen (μg/mL) 24 h (peptide 50 μg/mL (per Table 5)) | Average (A560 nm) (24 hours, peptide 50 μg/mL) | Average minus blank (A560 nm) (24 hours, peptide 50 μg/mL) | Collagen (μg) [1] | Collagen produced (μg/mL) 24 hrs ([Peptide] 50 μg/mL) | Released collagen (μg/mL) 48 h (peptide 50 μg/mL (per Table 5)) | Average (A560 nm) (48 hours, peptide 50 μg/mL) | Average minus blank (A560 nm) (48 hours, peptide 50 μg/mL) | Collagen produced (μg/mL) 48 hrs ([Peptide] 50 μg/mL) | Increase in collagen release at 48 h v. 24 h (peptide 50 μg/mL) | Collagen (μg) [2] | Decrease in collagen release at 48 h v. 24 h (peptide 50 μg/mL) | Average (A560 nm) [6] | Average minus blank (A560 nm) [6] | Average (A560 nm) [7] | Average minus blank (A560 nm) [7] | Collagen (μg) [7] | other results
GAGP (Synthetic Peptide H12) | 2 µg/mL | 0.08 | 0.00 | 0.2* μg | 2 µg/mL | 37 µg/mL | 0.17 | 0.05 | 37 µg/mL | ✓ | – | – | – | – | – | – | – | collagen production at 48 hours (in words) (48 hours): good results; Collagen [2]: 3.7 µg
GEKG (Synthetic Peptide H14) [H14 = tested at 50 μg/mL, H38 = same peptide tested at 0.3 μg/mL] | 30 µg/mL | 0.12 | 0.04 | – | 30 µg/mL | 26 µg/mL | 0.15 | 0.03 | 26 µg/mL | – | – | – | – | – | – | – | – | time for which collagen production was substantially maintained: at least 48 hours; collagen stimulation at the lower concentration (in words) (0.3 μg/mL versus 50 μg/mL): not diminished; collagen production compared to KTTKS (24 and 48 hours): stimulated more collagen production than the KTTKS; Released collagen (μg/mL) 24 h [3]: 29 µg/mL; amount of collagen induced compared to LL37 (24 hours): about the same amount of collagen as LL37; Average (A560 nm) [4]: 0.13; Average minus blank (A560 nm) [4]: 0.05; Collagen [4]: 2.9 µg; Collagen [1]: 3.0 µg; Collagen produced (μg/mL) 24 hrs ([Peptide] 0.3 μg/mL): 29 µg/mL; Released collagen (μg/mL) 48 h [3]: 28 µg/mL; Average (A560 nm) [5]: 0.11; Average minus blank (A560 nm) [5]: 0.05; Collagen [5]: 2.8 µg; Collagen [2]: 2.6 µg; Collagen produced (μg/mL) 48 hrs ([Peptide] 0.3 μg/mL): 28 µg/mL; Significant release of collagen at 24 h and 48 h (peptide 0.3 μg/mL): ✓; Significant release of collagen at 24 h and 48 h (peptide 50 μg/mL): ✓; maximal stimulating concentration (collagen production): ≤ 0.3 µg/mL
GFPG (Synthetic Peptide H8) | 15 µg/mL | 0.10 | 0.02 | 1.5* μg | 15 µg/mL | 9 µg/mL | 0.13 | 0.01 | 9 µg/mL | – | 0.9* μg | – | – | – | – | – | – | –
GPPG (Synthetic Peptide H13) | 18 µg/mL | 0.10 | 0.02 | 1.8* μg | 18 µg/mL | 2 µg/mL | 0.12 | 0.00 | 2 µg/mL | – | 0.2* μg | – | – | – | – | – | – | –
GSPG (Synthetic Peptide H9) | 35 µg/mL | 0.13 | 0.05 | – | 35 µg/mL | 0 µg/mL | 0.09 | 0.00 | 0 µg/mL | – | 0.0* μg | ✓ | – | – | – | – | – | Collagen [1]: 3.5 µg
KTTKS [H32, reference compound] | – | – | – | – | – | 12 µg/mL | – | – | 12 µg/mL | – | – | – | 0.07 | −0.01 | 0.08 | 0.02 | 1.2* μg | Released collagen (μg/mL) 24 h [3]: 11 µg/mL; Average (A560 nm) [4]: 0.10; Average minus blank (A560 nm) [4]: 0.02; Collagen (μg) [4]: 1.1* μg; Collagen (μg) [6]: −0.5* μg; Collagen produced (μg/mL) 24 hrs ([Peptide] 0.3 μg/mL): 11 µg/mL; Released collagen (μg/mL) 48 h [3]: 22 µg/mL; Average (A560 nm) [5]: 0.10; Average minus blank (A560 nm) [5]: 0.04; Collagen (μg) [5]: 2.2* μg; Collagen produced (μg/mL) 48 hrs ([Peptide] 0.3 μg/mL): 22 µg/mL; Increase in collagen release at 48 h v. 24 h (peptide 0.3 μg/mL): ✓
PEGP (PEGP-NH2) [H7] | 0 µg/mL | 0.08 | 0.00 | 0.0* μg | 0 µg/mL | 54 µg/mL | 0.19 | 0.07 | 54 µg/mL | ✓ | – | – | – | – | – | – | – | Collagen [2]: 5.4 µg
PEKP (PEKP-NH2) [H16] | 31 µg/mL | – | – | – | 31 µg/mL | 3 µg/mL | – | – | 3 µg/mL | – | – | ✓ | 0.14 | 0.06 | 0.06 | 0.00 | 0.3* μg | Collagen [6]: 3.1 µg
PGNP (PGNP-NH2) [H30] | 9 µg/mL | – | – | – | 9 µg/mL | 20 µg/mL | – | – | 20 µg/mL | ✓ | – | – | 0.10 | 0.02 | 0.09 | 0.03 | 2.0* μg | Collagen (μg) [6]: 0.9* μg
PGPR (Synthetic Peptide H10) | 34 µg/mL | 0.12 | 0.04 | – | 34 µg/mL | 0 µg/mL | 0.11 | 0.00 | 0 µg/mL | – | 0.0* μg | ✓ | – | – | – | – | – | Collagen [1]: 3.4 µg
PGQP (PGQP-NH2) [H22] | 33 µg/mL | – | – | – | 33 µg/mL | 21 µg/mL | – | – | 21 µg/mL | – | – | ✓ | 0.14 | 0.06 | 0.09 | 0.03 | 2.1* μg | Collagen [6]: 3.3 µg
PGTP (PGTP-NH2) [H23] | 1 µg/mL | – | – | – | 1 µg/mL | 17 µg/mL | – | – | 17 µg/mL | ✓ | – | – | 0.08 | 0.00 | 0.09 | 0.03 | 1.7* μg | Collagen (μg) [6]: 0.1* μg
